Assay results: ChEMBL document CHEMBL1201862, “PubChem BioAssay data set” (2004)
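How tested: cells in 96-well plates exposed to compound for 48 hours at five concentrations. The concentration for 50% growth inhibition is given as GI50.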 Activity calls are given as the source filed them. Rule as the data show it: active = GI50 up to about 1.1 µM and inactive = higher.

How the values were obtained:
Experiment in all cases: DTP human tumour cell line panel, 48 h
786-0 = system: 786-0
A498 = system: A498
ACHN = system: ACHN
HCT-15 = system: HCT-15
IGROV-1 = system: IGROV-1
MCF7 = system: MCF7
MDA-MB-435 = system: MDA-MB-435
MDA-N = system: MDA-N
MOLT-4 = system: MOLT-4
Malme-3M = system: Malme-3M
NCI-H226 = system: NCI-H226
NCI-H23 = system: NCI-H23
NCI-H522 = system: NCI-H522
RXF 393 = system: RXF 393
SK-MEL-28 = system: SK-MEL-28
SN12C = system: SN12C
SNB-19 = system: SNB-19
UACC-62 = system: UACC-62
UO-31 = system: UO-31
SF-539 = system: SF-539

Row | SMILES | GI50 (786-0) | GI50 (A498) | GI50 (ACHN) | GI50 (HCT-15) | GI50 (IGROV-1) | GI50 (MCF7) | GI50 (MDA-MB-435) | GI50 (MDA-N) | GI50 (MOLT-4) | GI50 (Malme-3M) | GI50 (NCI-H226) | GI50 (NCI-H23) | GI50 (NCI-H522) | GI50 (RXF 393) | GI50 (SK-MEL-28) | GI50 (SN12C) | GI50 (SNB-19) | GI50 (UACC-62) | GI50 (UO-31) | GI50 (SF-539)
1 | Nc1ccc(Oc2ccc(C34CC5C6CC7(c8ccc(Oc9ccc(N)cc9)cc8)CC5C(C3)C(C7)C6C4)cc2)cc1 | > 100 µM (inactive) | > 100 µM (inactive) | > 100 µM (inactive) | > 100 µM | > 100 µM (inactive) | > 100 µM (inactive) | > 100 µM (inactive) | > 100 µM (inactive) | > 100 µM (inactive) | > 100 µM (inactive) | > 100 µM (inactive) | > 100 µM (inactive) | > 100 µM (inactive) | > 100 µM (inactive) | > 100 µM (inactive) | > 100 µM (inactive) | > 100 µM (inactive) | > 100 µM (inactive) | > 100 µM (inactive) | –
2 | COC(=O)c1c(O)ccc2c1c1c(n2-c2ccc(OC)cc2)C(=O)c2ccccc2C1=O | 15.7 µM (inactive) | > 100 µM (inactive) | 12.8 µM (inactive) | 18.3 µM | 16.6 µM (inactive) | 16.6 µM (inactive) | 66.8 µM (inactive) | 57.1 µM (inactive) | 8.28 µM (inactive) | 24.4 µM (inactive) | 25.5 µM (inactive) | 36.7 µM (inactive) | 15.1 µM (inactive) | 13 µM (inactive) | 29.9 µM (inactive) | 28.9 µM (inactive) | 20.6 µM (inactive) | – | 11.9 µM (inactive) | 15.3 µM (inactive)
3 | COC(C)(C)C1=CCC(C)CC1 (stereo not drawn) | > 100 µM (inactive) | > 100 µM (inactive) | > 100 µM (inactive) | > 100 µM | > 100 µM (inactive) | 41.8 µM (inactive) | > 100 µM (inactive) | > 100 µM (inactive) | 30 µM (inactive) | > 100 µM (inactive) | – | > 100 µM (inactive) | > 100 µM (inactive) | > 100 µM (inactive) | > 100 µM (inactive) | > 100 µM (inactive) | > 100 µM (inactive) | > 100 µM (inactive) | > 100 µM (inactive) | > 100 µM (inactive)
4 | O=C(CN1CCCCC1)CC(O)(C(F)(F)F)C(F)(F)F | > 100 µM (inactive) | > 100 µM (inactive) | > 100 µM (inactive) | > 100 µM | > 100 µM (inactive) | > 100 µM (inactive) | > 100 µM (inactive) | > 100 µM (inactive) | – | > 100 µM (inactive) | > 100 µM (inactive) | > 100 µM (inactive) | > 100 µM (inactive) | > 100 µM (inactive) | > 100 µM (inactive) | – | > 100 µM (inactive) | > 100 µM (inactive) | > 100 µM (inactive) | > 100 µM (inactive)
5 | CC[C@@H]1CC[C@@H]2[C@H](CC[C@]3(C)[C@@H](O[N+](=O)[O-])CC[C@@H]23)[C@H]1C(C)=O | 50.7 µM (inactive) | 31 µM (inactive) | 28.4 µM (inactive) | 22.2 µM | 34.7 µM (inactive) | 23.8 µM (inactive) | 32.8 µM (inactive) | 28.9 µM (inactive) | 24.3 µM (inactive) | 25.4 µM (inactive) | 26.5 µM (inactive) | 28.1 µM (inactive) | 28.8 µM (inactive) | 28.2 µM (inactive) | 30.3 µM (inactive) | 43.3 µM (inactive) | 56.5 µM (inactive) | – | 24.6 µM (inactive) | 38.3 µM (inactive)
6 | CN(C)c1ccc(/C=N\NC(=O)Nc2cccc3ccccc23)cc1 | 5.74 µM (inactive) | 8.99 µM (inactive) | 6.98 µM (inactive) | 1.53 µM | 9.91 µM (inactive) | 3.86 µM (inactive) | 0.927 µM (active) | 1.53 µM (inactive) | 4.56 µM (inactive) | 4.03 µM (inactive) | 0.208 µM (active) | 4.75 µM (inactive) | 2.08 µM (inactive) | 20.7 µM (inactive) | 19.1 µM (inactive) | 11.8 µM (inactive) | 2.46 µM (inactive) | – | 13.2 µM (inactive) | 4.4 µM (inactive)
7 | O=C1CN(c2ccc(Cl)cc2)C(=O)CN1NCNN1CC(=O)N(c2ccc(Cl)cc2)CC1=O | > 100 µM (inactive) | > 100 µM (inactive) | > 100 µM (inactive) | > 100 µM | > 100 µM (inactive) | > 100 µM (inactive) | > 100 µM (inactive) | > 100 µM (inactive) | > 100 µM (inactive) | > 100 µM (inactive) | – | > 100 µM (inactive) | > 100 µM (inactive) | > 100 µM (inactive) | > 100 µM (inactive) | > 100 µM (inactive) | > 100 µM (inactive) | > 100 µM (inactive) | > 100 µM (inactive) | > 100 µM (inactive)
8 | COC(=O)c1cncc2c1CC1C3(C(=O)OC)C=NC(C4C(CO)=CCC43)C21C (stereo not drawn) | > 100 µM (inactive) | > 100 µM (inactive) | > 100 µM (inactive) | > 100 µM | > 100 µM (inactive) | > 100 µM (inactive) | > 100 µM (inactive) | > 100 µM (inactive) | > 100 µM (inactive) | > 100 µM (inactive) | > 100 µM (inactive) | > 100 µM (inactive) | > 100 µM (inactive) | > 100 µM (inactive) | > 100 µM (inactive) | > 100 µM (inactive) | > 100 µM (inactive) | – | > 100 µM (inactive) | > 100 µM (inactive)
9 | S=C(N/N=C(/c1ccccc1)c1ccccn1)N1CCCCC1 | < 0.0286 µM (active) | 0.407 µM (active) | < 0.0443 µM (active) | < 0.0234 µM | < 0.0164 µM (active) | 0.0425 µM (active) | 0.134 µM (active) | < 0.038 µM (active) | < 0.0135 µM (active) | 0.441 µM (active) | 0.134 µM (active) | 0.0459 µM (active) | < 0.0344 µM (active) | 1.28 µM (inactive) | 0.604 µM (active) | – | 0.966 µM (active) | 0.16 µM (active) | 0.0716 µM (active) | 0.424 µM (active)
10 | COc1cc2oc(=O)cc(C)c2cc1O | > 100 µM (inactive) | > 100 µM (inactive) | > 100 µM (inactive) | > 100 µM | > 100 µM (inactive) | > 100 µM (inactive) | > 100 µM (inactive) | > 100 µM (inactive) | > 100 µM (inactive) | > 100 µM (inactive) | > 100 µM (inactive) | > 100 µM (inactive) | > 100 µM (inactive) | > 100 µM (inactive) | > 100 µM (inactive) | > 100 µM (inactive) | > 100 µM (inactive) | – | 54.5 µM (inactive) | > 100 µM (inactive)
11 | c1ccc2c(c1)[nH]c1nc3cc(-c4ccc5nc6c(nc5c4)[nH]c4ccccc46)ccc3nc12 | > 100 µM (inactive) | > 100 µM (inactive) | > 52.8 µM (inactive) | – | > 100 µM (inactive) | 20.5 µM (inactive) | > 100 µM (inactive) | > 100 µM (inactive) | 0.166 µM (active) | > 100 µM (inactive) | > 100 µM (inactive) | > 59 µM (inactive) | 5.42 µM (inactive) | > 100 µM (inactive) | > 100 µM (inactive) | > 100 µM (inactive) | > 100 µM (inactive) | > 72.9 µM (inactive) | > 100 µM (inactive) | –
12 | O=C1/C(=C/c2ccccc2)N=C(c2ccccc2)N1C1Nc2cc3c(cc2S1)NC(N1C(=O)/C(=C/c2ccccc2)N=C1c1ccccc1)S3 (stereo not drawn) | 53.6 µM (inactive) | 16.9 µM (inactive) | 29.5 µM (inactive) | 24.2 µM | 6.98 µM (inactive) | 22.3 µM (inactive) | 13.6 µM (inactive) | 8.61 µM (inactive) | 4.13 µM (inactive) | – | 44.5 µM (inactive) | 4.9 µM (inactive) | 0.0258 µM (active) | 18.4 µM (inactive) | 6.64 µM (inactive) | – | – | – | 47.8 µM (inactive) | > 100 µM (inactive)
13 | COc1cc(/C=C/C(=O)N[C@@H]2C(=O)N3[C@@H]2SC(C)(C)[C@@H]3C(=O)O)cc(OC)c1OC | > 100 µM (inactive) | > 100 µM (inactive) | > 100 µM (inactive) | > 100 µM | – | > 100 µM (inactive) | > 100 µM (inactive) | > 100 µM (inactive) | > 100 µM (inactive) | – | > 100 µM (inactive) | > 100 µM (inactive) | > 100 µM (inactive) | > 100 µM (inactive) | > 100 µM (inactive) | > 100 µM (inactive) | > 100 µM (inactive) | > 100 µM (inactive) | > 100 µM (inactive) | > 100 µM (inactive)
14 | CON(C)C(=O)C(C)NC(=O)OCc1ccccc1 (stereo not drawn) | > 100 µM (inactive) | > 100 µM (inactive) | > 100 µM (inactive) | > 100 µM | > 100 µM (inactive) | > 100 µM (inactive) | > 100 µM (inactive) | > 100 µM (inactive) | > 100 µM (inactive) | > 100 µM (inactive) | > 100 µM (inactive) | > 100 µM (inactive) | – | > 100 µM (inactive) | > 100 µM (inactive) | > 100 µM (inactive) | > 100 µM (inactive) | > 100 µM (inactive) | > 100 µM (inactive) | > 100 µM (inactive)
15 | NC(Cc1cc(I)c(Oc2ccc(O)c(I)c2)c(I)c1)C(=O)O (stereo not drawn) [RATHYRONINE] | > 100 µM (inactive) | 35.7 µM (inactive) | > 100 µM (inactive) | > 100 µM | 73.1 µM (inactive) | 41.6 µM (inactive) | > 100 µM (inactive) | > 100 µM (inactive) | – | 36.8 µM (inactive) | > 100 µM (inactive) | > 100 µM (inactive) | 36.1 µM (inactive) | > 100 µM (inactive) | 38.9 µM (inactive) | > 100 µM (inactive) | 80.9 µM (inactive) | 64.4 µM (inactive) | > 100 µM (inactive) | –
